Usually Kp stands for the ratio of the level in a tissue or fluid to that in plasma or blood. What is called Tmax is the time at which the peak concentration occurs. In general, half-life refers to the time needed for the level to fall by half in the phase considered. What is called AUC(0-t) is the area under the concentration-time curve up to a stated or last time point. Broadly, the Cmax is the peak of the concentration-time curve.

Read-outs that look alike come from different tables or passages of the source. Bounds are passed on as bounds.

Series [1] is classed as in vivo, human. Conditions: for concentration at 12 h: serum, Serum concentration; for concentration at 12 h / Serum concentration / Tumor concentration: approximately 12 hours after 8th AEE788 (250 mg) dose.
A short description of series [2]: Safety assessment: adverse events. In kind it is in vivo.
In series [3] the test system is recurrent glioblastoma. Nature of the series: Efficacy: tumor response. In kind it is in vivo, human. The conditions noted are these: for Median PFS: dose expansion phase.
For series [4], the system named is recurrent glioblastoma. Nature of the series: FLT-PET and DCE-/DSC-/DWI-MRI pharmacodynamic imaging. Type of series: in vivo, human.
The conditions of series [5]: human, in vivo.
Series [6] in a line: Serum pharmacokinetics of AEE788 and its metabolite AQM674.
The subject of series [7] is recurrent glioblastoma. Conditions: glioblastoma patients; erlotinib in combination with temsirolimus; cited from earlier work.
The conditions of series [8]: temsirolimus combined with sorafenib; 9 of 19 patients; cited from earlier work.

In series [1] (human, glioblastoma tumor / plasma, oral, 250 mg), `CCN1CCN(Cc2ccc(-c3cc4c(N[C@H](C)c5ccccc5)ncnc4[nH]3)cc2)CC1` [AEE788] yielded a Kp of 14 to 59. In addition, the concentration at 12 h in series [1] (human, oral, 250 mg, Patient 1) came to 57.3 ng/mL; in series [1] (human, oral, 250 mg, Patient 2), 41.9 ng/mL; in series [1] (human, oral, 250 mg, Patient 3), 141 ng/mL; in series [1] (human, oral, 250 mg, Patient 4), 110 ng/mL. The “deaths within 28 days of last dose of AEE788” value in series [2] (Group A) amounted to 4 deaths. The “Treatment discontinuation due to death” value is recorded as 2 (7.7) n (%) in series [2] (Group A, of 26 patients) and 0 (0) n (%) in series [2] (Group B, of 14 patients). For the same molecule, in series [2] (all disease progression), the “deaths during AEE788 therapy” value is recorded as “Three”. Also, the “hepatotoxicity (at least grade 2 AST or ALT elevations), patients” value in series [2] (human, in vivo) is reported as 27%. Moreover, the “patients who discontinued because of SAEs” value in series [2] (human, in vivo) was determined as 17%. In series [2] (human, in vivo), the “patients who discontinued treatment because of AEs” value is reported as 28%. In addition, the “patients with grade 3/4 AST or ALT elevations” value in series [2] (human, in vivo) is reported as 22%. Further, the “patients reporting at least one AE” value in series [2] (in vivo) is given as “All patients”. Further, in series [2] (in vivo), the “relationship between higher AEE788 dose levels and AST or ALT abnormalities” value is listed as “No relationship”. Moreover, the “overall best response: SD for > 3 cycles, patients” value in series [3] (6 of 36 patients) came to 17%. Further, the “Treatment discontinuation due to progressive disease” value in series [3] (Group A, of 26 patients) is listed as 18 (69.2) n (%); in series [3] (Group B, of 14 patients) it was 11 (78.6) n (%). Besides, the “complete or partial response” value in series [3] (all patients) is recorded as “No CR or PR”. The “Median PFS” value is reported as 2.7 (90% CI: 1.9, 2.8) months in series [3] (Group A) and 1.6 (90% CI: 0.2, 2.6) months in series [3] (Group B). Moreover, the “disease progression causing treatment discontinuation, patients” value in series [3] (dose-escalation EIACD group, all dose levels (11 patients)) was 78.6%; in series [3] (dose-escalation non-EIACD group, all dose levels (18 patients)) it was 69.2%; in series [3] (dose-expansion Arm 1, all dose levels (5 patients)) it was 71.4%; in series [3] (dose-expansion Arm 2, all dose levels (10 patients)), 58.8%. Moreover, the “change in FLT-PET parameters” value in series [4] (FLT-PET in 6 patients (250, 400, 600 mg)) is on record as “one patient experienced a significant decrease in PET parameters”. Besides, the “pharmacodynamic effects based on FLT-PET and/or MRI analyses” value in series [4] (any dose level) is reported as “no significant pharmacodynamic effects”. For the same molecule, the “PK steady state reached” value in series [5] is no more than 15 days. For the same molecule, the “accumulation after daily (q 24 h) administration versus a single dose” value in series [5] was 2-8 times. Moreover, the “effect of EIACD on overall exposure / concentrations” value in series [5] was “reduced”. Moreover, the “exposure of Group B patients at 600 mg relative to Group A patients at 550 mg” value in series [5] was “half”. In addition, in series [5], the “fold range in exposure over an 11-fold range in doses (50–550 mg)” value came to 52 fold. For the same molecule, the “mean coefficient of variation in AUC0–24” value in series [5] was determined as 67%. In addition, the “range of coefficient of variation in AUC0–24” value in series [5] is 47-102%. Further, in series [5] (15 day), the “exposure on day 15 relative to day 1” value is on record as “approximately 4.5 fold”. In addition, the time to peak (Tmax) was 5 h in series [6] (human, serum, oral); 3 h in series [6] (human, serum, oral, 50 mg/day); 4.3 h in series [6] (human, serum, oral, 100 mg/day); 9 h in series [6] (human, serum, oral, 200 mg/day); 5.9 h in series [6] (human, serum, oral, 250 mg/day); 4.9 h in series [6] (human, serum, oral, 300 mg/day). The Tmax in series [6] (human, serum, oral, 400 mg/day) amounted to 6.7 h; in series [6] (human, serum, oral, 450 mg/day), 11 h; in series [6] (human, serum, oral, 550 mg/day), 12.5 h; in series [6] (human, serum, oral, 600 mg/day) it was 3.7 h; in series [6] (human, serum, oral, 800 mg/day) it was 3 h. The half-life in series [6] (human, serum, oral) is greater than 24 h. The area under the curve AUC(0-t) in series [6] (human, serum, oral, 50 mg/day) was 82 ng·h/mL; in series [6] (human, serum, oral, 100 mg/day) it was 168 ng·h/mL; in series [6] (human, serum, oral, 200 mg/day), 189 ng·h/mL; in series [6] (human, serum, oral, 250 mg/day), 1440 ng·h/mL; in series [6] (human, serum, oral, 300 mg/day) it was 628 ng·h/mL; in series [6] (human, serum, oral, 400 mg/day) it was 1150 ng·h/mL. For the same molecule, the AUC(0-t) is 3000 ng·h/mL in series [6] (human, serum, oral, 450 mg/day); 4300 ng·h/mL in series [6] (human, serum, oral, 550 mg/day); 730 ng·h/mL in series [6] (human, serum, oral, 600 mg/day); 1460 ng·h/mL in series [6] (human, serum, oral, 800 mg/day). Also, the peak concentration (Cmax) was found to be 7.7 ng/mL in series [6] (human, serum, oral, 50 mg/day); 12.7 ng/mL in series [6] (human, serum, oral, 100 mg/day); 8.2 ng/mL in series [6] (human, serum, oral, 200 mg/day); 74.5 ng/mL in series [6] (human, serum, oral, 250 mg/day); 55.2 ng/mL in series [6] (human, serum, oral, 300 mg/day); 77.1 ng/mL in series [6] (human, serum, oral, 400 mg/day). Moreover, the maximum concentration (Cmax) in series [6] (human, serum, oral, 450 mg/day) is 148 ng/mL; in series [6] (human, serum, oral, 550 mg/day), 234 ng/mL; in series [6] (human, serum, oral, 600 mg/day) it was 71.8 ng/mL; in series [6] (human, serum, oral, 800 mg/day), 95.2 ng/mL.
Turning to `C[C@@H](Nc1ncnc2[nH]c(-c3ccc(CN4CCNCC4)cc3)cc12)c1ccccc1` [AQM674], the Serum concentration in series [1] (Patient 1) amounted to 20.6 ng/mL; in series [1] (Patient 2), 22.8 ng/mL; in series [1] (Patient 3), 31.3 ng/mL; in series [1] (Patient 4), 22.8 ng/mL. Besides, the Tumor concentration was found to be 196.7 ng/mL in series [1] (Patient 1), 411.2 ng/mL in series [1] (Patient 2), 299.5 ng/mL in series [1] (Patient 3) and 93.9 ng/mL in series [1] (Patient 4). Also, the “exposure on day 15 relative to day 1” value in series [5] is on record as roughly 3 fold. Also, the “time of maximum serum concentration after administration, on average” value in series [5] worked out at 4.6 h. In addition, the “fold range in exposure over an 11-fold range in doses (50–550 mg)” value in series [6] (Group A) worked out at 20 fold. In series [6] (Group B (EIACD) vs Group A), the “effect of EIACD on overall exposure / concentrations” value is “reduced”. Also, the “accumulation after daily (q 24 h) administration versus a single dose” value in series [6] (human, in vivo) was 2-8 times. For the same molecule, the “PK steady state reached” value in series [6] (once-daily dosing) is no more than 15 days.
As to `C#Cc1cccc(Nc2ncnc3cc(OCCOC)c(OCCOC)cc23)c1` [erlotinib], in series [7], the “6-month PFS” value is recorded as 12.5% and the PR entry is given as “none”.
With `CO[C@H]1C[C@@H]2CC[C@@H](C)[C@@](O)(O2)C(=O)C(=O)N2CCCC[C@H]2C(=O)O[C@H]([C@H](C)C[C@@H]2CC[C@@H](OC(=O)C(C)(CO)CO)[C@H](OC)C2)CC(=O)[C@H](C)/C=C(\C)[C@@H](O)[C@@H](OC)C(=O)[C@H](C)C[C@H](C)/C=C/C=C/C=C/1C` [temsirolimus], the “grade 3 thrombocytopenia, patients” value in series [8] is recorded as 47%.

The record behind these values is paper PMC4351868 (Cancer chemotherapy and pharmacology, 2012).
